{"source": "patent US20040266732A1", "about": "“Therapeutic agents, methods, and treatments” (priority 2002, published 2004)", "test_in_all_cases": "NCI 60 cell-line test", "assay_type_in_all_cases": "cell-based, human", "key": {"BT-549": {"system": "BT-549", "details": "BT-549 (Breast Cancer)", "method": "(§1) Methodology: The NCI conducted a test of the MT103 drug against 60 human cell lines, with a minimum of five concentrations of MT103 at 10-fold dilutions. A 48 hour continuous drug exposure was used, and a sulforhodamine B (SRB) protein assay was used to estimate cell viability and growth. The human tumor cell lines of the cancer screening panel were grown in RPMI 1640 medium containing 5% fetal bovine serum and 2 mM L-glutamine. Cells were inoculated into 96 well microtiter plates in 100 μL at plating densities ranging from 5,000 to 40,000 cells/well depending on the doubling time of individual cell lines. After cell inoculation, the microtiter plates are incubated at 37° C., 5% CO2, 95% air, and 100% relative humidity for 24 h prior to addition of experimental drugs.\n(§2) After 24 h, two plates of each cell line were fixed in situ with TCA, to represent a measurement of the cell population for each cell line at the time of drug addition (Tz). MT103 was solubilized in dimethyl sulfoxide at 400-fold the desired final maximum test concentration and stored frozen prior to use. At the time of drug addition, an aliquot of frozen concentrate was thawed and diluted to twice the desired final maximum test concentration with complete medium containing 50 μg/ml gentamicin. Additional four, 10-fold or ½ log serial dilutions were made to provide a total of five drug concentrations plus control. Aliquots of 100 μl of these different drug dilutions were added to the appropriate microtiter wells already containing 100 μl of medium, resulting in the required final drug concentrations.\n(§3) Following drug addition, the plates were incubated for an additional 48 h at 37° C., 5% CO2, 95% air, and 100% relative humidity. For adherent cells, the assay was terminated by the addition of cold TCA. Cells were fixed in situ by the gentle addition of 50 μl of cold 50% (w/v) TCA (final concentration, 10% TCA) and incubated for 60 minutes at 4° C. The supernatant was discarded, and the plates were washed five times with tap water and air dried. Sulforhodamine B (SRB) solution (100 μl) at 0.4% (w/v) in 1% acetic acid was added to each well, and plates were incubated for 10 minutes at room temperature. After staining, unbound dye was removed by washing five times with 1% acetic acid and the plates were air-dried. Bound stain was subsequently solubilized with 10 mM trizma base, and the absorbance was read on an automated plate reader at a wavelength of 515 nm. For suspension cells, the methodology was the same except that the assay was terminated by fixing settled cells at the bottom of the wells by gently adding 50 μl of 80% TCA (final concentration, 16% TCA). Using the seven absorbance measurements (time zero, (Tz), control growth, (C), and test growth in the presence of drug at the five concentration levels (Ti)), the percentage growth was calculated at each of the drug concentrations levels. Percentage growth inhibition was calculated as:\n(§4) [(Ti-Tz)/(C-Tz)]×100 for concentrations for which Ti>/=Tz\n(§5) [(Ti-Tz)/Tz]×100 for concentrations for which Ti<Tz.\n(§6) Three dose response parameters were calculated for each experimental agent. Growth inhibition of 50% (GI50) was calculated from [(Ti-Tz)/(C-Tz)]×100=50, which is the drug concentration resulting in a 50% reduction in the net protein increase (as measured by SRB staining) in control cells during the drug incubation. The drug concentration resulting in total growth inhibition (TGI) was calculated from Ti=Tz. The LC50 (concentration of drug resulting in a 50% reduction in the measured protein at the end of the drug treatment as compared to that at the beginning) indicating a net loss of cells following treatment was calculated from [(Ti-Tz)/Tz]×100=−50. Values were calculated for each of these three parameters if the level of activity is reached; however, if the effect was not reached or was exceeded, the value for that parameter was expressed as greater or less than the maximum or minimum concentration tested."}, "CAKI-1": {"system": "CAKI-1", "details": "CAKI-1 (Renal Cancer)", "method": "as §1, §2, §3, §4, §5, §6"}, "COLO 205": {"system": "COLO 205", "details": "COLO 205 (Colon Cancer)", "method": "as §1, §2, §3, §4, §5, §6"}, "HT29": {"system": "HT29", "details": "HT29 (Colon Cancer)", "method": "as §1, §2, §3, §4, §5, §6"}, "K-562": {"system": "K-562", "details": "K-562 (Leukemia)", "method": "as §1, §2, §3, §4, §5, §6"}, "MCF7": {"system": "MCF7", "details": "MCF7 (Breast Cancer)", "method": "as §1, §2, §3, §4, §5, §6"}, "MDA-N": {"system": "MDA-N", "details": "MDA-N (Breast Cancer)", "method": "as §1, §2, §3, §4, §5, §6"}, "MOLT-4": {"system": "MOLT-4", "details": "MOLT-4 (Leukemia)", "method": "as §1, §2, §3, §4, §5, §6"}, "NCI-H322M": {"system": "NCI-H322M", "details": "NCI-H322M (Non-Small Cell Lung Cancer)", "method": "as §1, §2, §3, §4, §5, §6"}, "OVCAR-4": {"system": "OVCAR-4", "details": "OVCAR-4 (Ovarian Cancer)", "method": "as §1, §2, §3, §4, §5, §6"}, "RPMI-8226": {"system": "RPMI-8226", "details": "RPMI-8226 (Leukemia)", "method": "as §1, §2, §3, §4, §5, §6"}, "RXF 393": {"system": "RXF 393", "details": "RXF 393 (Renal Cancer)", "method": "as §1, §2, §3, §4, §5, §6"}, "SK-MEL-28": {"system": "SK-MEL-28", "details": "SK-MEL-28 (Melanoma)", "method": "as §1, §2, §3, §4, §5, §6"}, "SNB-19": {"system": "SNB-19", "details": "SNB-19 (CNS Cancer)", "method": "as §1, §2, §3, §4, §5, §6"}, "SW-620": {"system": "SW-620", "details": "SW-620 (Colon Cancer)", "method": "as §1, §2, §3, §4, §5, §6"}, "[1]": {"details": "read-out: LC50 (the source's name)"}}, "data": [{"smiles": "CC1(C)C2CC[C@@]1(CS(=O)(=O)N(C1CCCCC1)C1CCCCC1)C(O)C2", "note": "(stereo partly drawn) [MT103]", "values": [{"measurement": "TGI", "setting": "BT-549", "result": ">1.00E−04"}, {"measurement": "IC50", "setting": "BT-549; read-out: G150", "result": 59.3, "unit": "µM"}, {"measurement": "CC50", "setting": "BT-549; [1]", "result": "> 100", "unit": "µM"}, {"measurement": "TGI", "setting": "CAKI-1", "result": "9.05E−05"}, {"measurement": "IC50", "setting": "CAKI-1; read-out: G150", "result": 23.5, "unit": "µM"}, {"measurement": "CC50", "setting": "CAKI-1; [1]", "result": "> 100", "unit": "µM"}, {"measurement": "TGI", "setting": "COLO 205", "result": "4.98E−05"}, {"measurement": "IC50", "setting": "COLO 205; read-out: G150", "result": 21.3, "unit": "µM"}, {"measurement": "CC50", "setting": "COLO 205; [1]", "result": "> 100", "unit": "µM"}, {"measurement": "TGI", "setting": "HT29", "result": ">1.00E−04"}, {"measurement": "IC50", "setting": "HT29; read-out: G150", "result": 23.5, "unit": "µM"}, {"measurement": "CC50", "setting": "HT29; [1]", "result": "> 100", "unit": "µM"}, {"measurement": "TGI", "setting": "K-562", "result": ">1.00E−04"}, {"measurement": "IC50", "setting": "K-562; read-out: G150", "result": 26.8, "unit": "µM"}, {"measurement": "CC50", "setting": "K-562; [1]", "result": "> 100", "unit": "µM"}, {"measurement": "TGI", "setting": "MCF7", "result": "9.05E−05"}, {"measurement": "IC50", "setting": "MCF7; read-out: G150", "result": 20.6, "unit": "µM"}, {"measurement": "CC50", "setting": "MCF7; [1]", "result": "> 100", "unit": "µM"}, {"measurement": "TGI", "setting": "MDA-N", "result": ">1.00E−04"}, {"measurement": "IC50", "setting": "MDA-N; read-out: G150", "result": 27.1, "unit": "µM"}, {"measurement": "CC50", "setting": "MDA-N; [1]", "result": "> 100", "unit": "µM"}, {"measurement": "TGI", "setting": "MOLT-4", "result": ">1.00E−04"}, {"measurement": "IC50", "setting": "MOLT-4; read-out: G150", "result": 20.6, "unit": "µM"}, {"measurement": "CC50", "setting": "MOLT-4; [1]", "result": "> 100", "unit": "µM"}, {"measurement": "TGI", "setting": "NCI-H322M", "result": ">1.00E−04"}, {"measurement": "IC50", "setting": "NCI-H322M; read-out: G150", "result": 27.3, "unit": "µM"}, {"measurement": "CC50", "setting": "NCI-H322M; [1]", "result": "> 100", "unit": "µM"}, {"measurement": "TGI", "setting": "OVCAR-4", "result": ">1.00E−04"}, {"measurement": "IC50", "setting": "OVCAR-4; read-out: G150", "result": 30.2, "unit": "µM"}, {"measurement": "CC50", "setting": "OVCAR-4; [1]", "result": "> 100", "unit": "µM"}, {"measurement": "TGI", "setting": "RPMI-8226", "result": "3.68E−05"}, {"measurement": "IC50", "setting": "RPMI-8226; read-out: G150", "result": 11.8, "unit": "µM"}, {"measurement": "CC50", "setting": "RPMI-8226; [1]", "result": "> 100", "unit": "µM"}, {"measurement": "TGI", "setting": "RXF 393", "result": "9.77E−05"}, {"measurement": "IC50", "setting": "RXF 393; read-out: G150", "result": 24.2, "unit": "µM"}, {"measurement": "CC50", "setting": "RXF 393; [1]", "result": "> 100", "unit": "µM"}, {"measurement": "TGI", "setting": "SK-MEL-28", "result": ">1.00E−04"}, {"measurement": "IC50", "setting": "SK-MEL-28; read-out: G150", "result": 50.7, "unit": "µM"}, {"measurement": "CC50", "setting": "SK-MEL-28; [1]", "result": "> 100", "unit": "µM"}, {"measurement": "TGI", "setting": "SNB-19", "result": ">1.00E−04"}, {"measurement": "IC50", "setting": "SNB-19; read-out: G150", "result": 68, "unit": "µM"}, {"measurement": "CC50", "setting": "SNB-19; [1]", "result": "> 100", "unit": "µM"}, {"measurement": "TGI", "setting": "SW-620", "result": ">1.00E−04"}, {"measurement": "IC50", "setting": "SW-620; read-out: G150", "result": 28.8, "unit": "µM"}, {"measurement": "CC50", "setting": "SW-620; [1]", "result": "> 100", "unit": "µM"}]}]}
